Data on 1 compound can be found in US20050215589A1, “Inhibitors of 5-HT2A receptor” (priority 2003, published 2005).

For one assay, the target named is T1, 5-HT1A (Homo sapiens, UniProt P08908).
T1 construct: expressed in transfected cells; host or cells: CHO or HEK293
T1 sequence (P08908 1-422): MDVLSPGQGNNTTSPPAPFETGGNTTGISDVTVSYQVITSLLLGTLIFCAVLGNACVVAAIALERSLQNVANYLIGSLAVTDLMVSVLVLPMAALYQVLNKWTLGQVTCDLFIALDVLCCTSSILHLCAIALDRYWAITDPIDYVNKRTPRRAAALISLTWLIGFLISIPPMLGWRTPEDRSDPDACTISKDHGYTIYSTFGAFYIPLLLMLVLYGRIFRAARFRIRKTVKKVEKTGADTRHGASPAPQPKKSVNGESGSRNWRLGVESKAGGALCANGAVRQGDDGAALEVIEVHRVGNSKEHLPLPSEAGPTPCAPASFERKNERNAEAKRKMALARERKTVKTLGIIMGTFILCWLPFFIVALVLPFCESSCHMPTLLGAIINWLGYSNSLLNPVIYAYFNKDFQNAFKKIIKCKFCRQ
As to the kind of experiment: Radioligand displacement binding (3H-8-OH-DPAT). Conditions: recombinant human receptor in CHO or HEK293; tracer 3H-8-OH-DPAT. The protocol: (§1) The affinity constants of compounds were determined using recombinant human serotonin receptors stably expressed in fibroblast cell lines (CHO or HEK293), measuring the ability of the compounds to displace radio-labelled tracers using scintillation proximity assays or filter binding assays. For 5-HT1B, 5-HT2B and 5-HT2C receptor binding studies ^3H-LSD was used as radio ligand, for 5-HT2A and 5-HT6 ^3H-5-HT was used as tracer, while the binding constant to 5-HT1A was determined using ^3H-8-OH-DPAT. The non-selective serotonin receptor antagonist mianserine was used as reference substance.
(§2) The calculation of the Ki values for the inhibitors was performed by use of Activity Base. The Ki value is calculated from IC50 using the Cheng Prushoff equation (with reversible inhibition that follows the Michaelis-Menten equation): […] [Cheng, Y. C.; Prushoff, W. H. Biochem. Pharmacol. 1973, 22, 3099-3108].

Assay [1] concerns the target T2, 5-HT2A (Homo sapiens, UniProt P28223). As to the kind of experiment: Radioligand displacement binding (3H-5-HT). More on the design: expressed in transfected cells; host or cells: CHO or HEK293. As for the experimental part:
as §1, §2

In assay [2] the target is T2, 5-HT2A. Kind of assay: FLIPR functional assay, inhibition of the 5-HT-evoked peak response (primary screening and IC50 determination). Format: cell-based. More on the design: expressed in transfected cells; host or cells: CHO. The following applies: CHO cells expressing 5-HT2A, 15 min pre-incubation, Ki calculated from IC50 (Cheng-Prusoff). As for the experimental part: CHO cells expressing 5-HT2A receptors seeded in 384 well plates are pre-loaded with Fluo-4AM fluorescent dye and then incubated with compound (10 μM for primary screen) for 15 min. Fluorescent intensity is recorded using a Fluorometric imaging plate reader (FLIPR384, Molecular Devices) and inhibition of the peak response evoked by 5-HT (EC70 concentration) is calculated.
IC50 determinations are performed utilizing the same functional assay as described for primary screening (15 min antagonist compound pre-incubation), applying the compounds in the dose range of 3 nM to 10 μM.
as §2

Assay [3] concerns the target T3, 5-HT2C (Homo sapiens, UniProt P28335).
T3 sequence (P28335 33-458): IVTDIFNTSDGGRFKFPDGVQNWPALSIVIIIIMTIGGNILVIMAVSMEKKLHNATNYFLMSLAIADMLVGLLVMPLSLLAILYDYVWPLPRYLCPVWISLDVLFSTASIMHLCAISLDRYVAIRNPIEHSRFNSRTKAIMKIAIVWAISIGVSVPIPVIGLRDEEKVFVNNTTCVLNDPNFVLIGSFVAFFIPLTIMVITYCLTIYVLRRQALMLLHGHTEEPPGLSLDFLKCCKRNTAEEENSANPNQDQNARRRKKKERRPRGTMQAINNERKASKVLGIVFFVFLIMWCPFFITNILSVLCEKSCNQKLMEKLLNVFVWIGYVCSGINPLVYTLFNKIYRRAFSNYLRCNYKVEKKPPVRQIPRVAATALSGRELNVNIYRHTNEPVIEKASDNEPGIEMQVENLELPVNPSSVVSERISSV
As to the kind of experiment: Radioligand displacement binding (3H-LSD). Also on record: expressed in transfected cells; host or cells: CHO or HEK293. The following applies: recombinant human receptor in CHO or HEK293; tracer 3H-LSD. The protocol: as §1, §2

In a further assay the target is T4, 5-HT6 (Homo sapiens, UniProt P50406).
T4 construct: expressed in transfected cells; host or cells: CHO or HEK293
T4 sequence (P50406 whole entry): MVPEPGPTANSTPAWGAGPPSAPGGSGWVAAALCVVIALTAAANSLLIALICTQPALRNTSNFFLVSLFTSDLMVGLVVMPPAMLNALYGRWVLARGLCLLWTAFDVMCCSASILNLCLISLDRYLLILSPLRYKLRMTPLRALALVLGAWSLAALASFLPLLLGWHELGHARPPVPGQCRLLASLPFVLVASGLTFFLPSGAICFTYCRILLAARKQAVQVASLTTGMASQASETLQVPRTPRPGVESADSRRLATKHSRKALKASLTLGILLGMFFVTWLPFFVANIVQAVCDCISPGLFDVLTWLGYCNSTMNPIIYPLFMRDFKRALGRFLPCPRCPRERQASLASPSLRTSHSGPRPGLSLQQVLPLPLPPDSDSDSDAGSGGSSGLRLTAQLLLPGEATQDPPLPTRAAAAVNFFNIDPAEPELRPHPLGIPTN
As to the kind of experiment: Radioligand displacement binding (3H-5-HT). The following applies: recombinant human receptor in CHO or HEK293; tracer 3H-5-HT. The protocol: as §1, §2

Another assay has as its target T5, 5-HT1B (Homo sapiens, UniProt P28222).
T5 construct: expressed in transfected cells; host or cells: CHO or HEK293
Kind of assay: Radioligand displacement binding (3H-LSD). The following applies: recombinant human receptor in CHO or HEK293; tracer 3H-LSD. As for the experimental part: as §1, §2

Another assay deals with T6, 5-HT2B (Homo sapiens, UniProt P41595).
T6 construct: expressed in transfected cells; host or cells: CHO or HEK293
T6 sequence (P41595 whole entry): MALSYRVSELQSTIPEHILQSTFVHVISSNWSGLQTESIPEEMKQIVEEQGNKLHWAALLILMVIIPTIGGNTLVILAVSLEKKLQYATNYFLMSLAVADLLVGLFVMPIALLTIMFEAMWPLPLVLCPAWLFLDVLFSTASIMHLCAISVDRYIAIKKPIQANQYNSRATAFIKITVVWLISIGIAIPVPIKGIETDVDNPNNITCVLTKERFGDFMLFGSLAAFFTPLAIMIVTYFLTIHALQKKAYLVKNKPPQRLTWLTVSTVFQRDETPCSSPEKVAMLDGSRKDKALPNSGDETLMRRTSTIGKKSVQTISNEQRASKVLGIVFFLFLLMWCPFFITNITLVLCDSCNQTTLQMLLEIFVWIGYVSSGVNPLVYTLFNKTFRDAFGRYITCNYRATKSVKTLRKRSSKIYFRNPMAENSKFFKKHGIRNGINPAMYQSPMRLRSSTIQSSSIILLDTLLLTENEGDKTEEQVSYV
Kind of assay: Radioligand displacement binding (3H-LSD). Conditions: recombinant human receptor in CHO or HEK293; tracer 3H-LSD. As for the experimental part: as §1, §2

Assay [4] addresses T3, 5-HT2C. As to the kind of experiment: FLIPR based assay, effect on 10 nM 5-HT induced Ca2+-currents. Format: cell-based. The following applies: FLIPR functional assays. As for the experimental part: The activity at 5-HT2C receptors was studied in a FLIPR based assay, measuring the effect of compounds on 10 nM 5-HT induced_Ca^2+-currents.

T2 sequence (P28223 whole entry): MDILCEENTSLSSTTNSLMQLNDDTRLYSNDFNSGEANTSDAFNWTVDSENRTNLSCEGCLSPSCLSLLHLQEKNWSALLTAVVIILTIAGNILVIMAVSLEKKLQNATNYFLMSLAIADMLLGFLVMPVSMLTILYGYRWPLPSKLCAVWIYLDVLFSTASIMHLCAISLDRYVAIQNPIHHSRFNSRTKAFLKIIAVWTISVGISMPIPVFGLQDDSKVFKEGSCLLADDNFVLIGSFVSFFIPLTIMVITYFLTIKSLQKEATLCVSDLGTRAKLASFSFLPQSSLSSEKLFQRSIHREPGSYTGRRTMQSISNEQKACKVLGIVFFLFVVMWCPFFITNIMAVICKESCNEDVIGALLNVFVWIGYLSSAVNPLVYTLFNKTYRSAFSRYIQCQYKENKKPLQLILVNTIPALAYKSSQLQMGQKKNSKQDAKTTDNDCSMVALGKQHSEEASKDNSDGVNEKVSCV
T5 sequence (P28222 whole entry): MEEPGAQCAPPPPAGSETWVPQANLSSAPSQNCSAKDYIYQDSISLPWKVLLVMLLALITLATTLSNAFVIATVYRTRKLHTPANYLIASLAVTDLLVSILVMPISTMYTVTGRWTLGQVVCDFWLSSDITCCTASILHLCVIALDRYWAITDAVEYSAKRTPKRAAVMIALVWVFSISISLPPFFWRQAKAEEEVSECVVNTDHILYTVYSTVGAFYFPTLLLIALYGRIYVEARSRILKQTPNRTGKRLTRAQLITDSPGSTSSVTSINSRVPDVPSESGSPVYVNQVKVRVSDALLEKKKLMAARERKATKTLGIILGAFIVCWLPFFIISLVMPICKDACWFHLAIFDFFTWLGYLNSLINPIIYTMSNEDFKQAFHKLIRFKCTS

As for `COc1cccc(OC)c1OCCN1CCC(C(=O)NC(=O)Nc2cccc(C(F)(F)F)c2)CC1` [Example 2, 1-[2-(2,6-dimethoxyphenoxy)ethyl]-N-({[3-(trifluoromethyl)phenyl]amino}carbonyl)piperidine-4-carboxamide], the inhibition constant Ki at 5-HT1A was over 1000 nM; at 5-HT2A [1] (recombinant human receptor in CHO or HEK293, tracer 3H-5-HT), 23 nM; at 5-HT2A [2], 32.3 nM; at 5-HT2C [3], over 1000 nM; at 5-HT6, over 1000 nM; at 5-HT1B, over 1000 nM. Also, the Ki at 5-HT2B was over 1000 nM. At 5-HT2A [1] (binding, 5-HT2A versus the other receptors), the “Selectivity over five other serotonin receptors (5-HT2C, 5-HT2B, 5-HT1A, 5-HT6 and 5-HT1B)” value is reported as “highly selective”. Also, the “Affinity for the 5-HT2A receptor subtype (Ki, in words)” value on 5-HT2A [1] (equilibrium displacement binding) is “in the nanomolar range”. The “Selectivity at 5-HT2A versus the 5-HT2C receptor in terms of efficacy” value on 5-HT2C [4] is “selective”.
